Experimental data published in article PMC10988762, “Inhibition of malaria and babesiosis parasites by putative red blood cell targeting small molecules” (Frontiers in Cellular and Infection Microbiology, 2024).
Like-named read-outs stand apart in the source and are kept apart here.

How the values were obtained:
human epithelial cells = system: human epithelial cells; design: method as in PMID 17145850; settings: cellular proliferation ref PMID 17145850; read-out: Micromolar IC50 (human epithelial cells); cited from earlier work
[1] = system: BdC9 line of B. divergens; experiment: Inhibitor susceptibility dose-response assay (SYBR-Green I), B. divergens; assay type: cell-based, Babesia divergens; settings: for IC50: read-out: IC50 (S.D.), B. divergens; for fold lower IC50s against B. divergens than the Plasmodium spp.: B. divergens vs Plasmodium spp.
Method: (§1) The P. falciparum strains 3D7 and Dd2 were obtained from the Walter and Eliza Hall Institute (Melbourne, Australia) and the Malaria Research and Reference Reagent Resource, respectively. […] B. divergens parasites were maintained and assayed in mixed stages without synchronization.
(§2) Ring-stage P. falciparum (1%-parasitemia starting, 1%-hematocrit) and asynchronous B.divergens (0.5%-parasitemia starting, 3%-hematocrit) were incubated with plated compounds for 72h, and ring-stage P. knowlesi (1%-parasitemia starting, 1%-hematocrit) for 48h, before lysis and staining with dye. To quantify the species-specificity of the inhibitors, we divided the range of IC50s across the 4 test lines by the average IC50 across the same lines: inhibitors with increased scores show species-specific activity and reduced scores indicate broad-spectrum, pan-species activity.

P. falciparum strain 3D7 = experiment: Inhibitor susceptibility dose-response assay (SYBR-Green I), P. falciparum 3D7; assay type: cell-based, Plasmodium falciparum; settings: read-out: IC50 (S.D.), P. falciparum-3D7
Method: as §1, §2

P. knowlesi YH1 strain = experiment: microbe, parasite or virus in culture; assay type: cell-based, Plasmodium knowlesi; settings: read-out: IC50 (S.D.), P. knowlesi
Method: as §1, §2

uninfected RBCs [2] = experiment: Cellular phosphatidylserine exposure assay (annexin V flow cytometry);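 note: flow cytometry recording 10,000 events per condition, gated on single cells, with the two experiments using blood from separate donors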
From the text: (§3) We analyzed samples using a volumetric MACSQuant Analyzer Flow Cytometer (Miltenyi Biotec), manually resuspending each row immediately prior to sample uptake. We recorded 10,000 total events for each condition at the instrument-defined low flow rate. We assessed all compounds in 2 separate experiments with blood from different donors. […] All samples were gated for single cell events.

P. falciparum strain Dd2 = experiment: Inhibitor susceptibility dose-response assay (SYBR-Green I), P. falciparum Dd2; assay type: cell-based, Plasmodium falciparum; settings: read-out: IC50 (S.D.), P. falciparum-Dd2
Method: as §1, §2

in vitro = settings: human
From the text: as §3

uninfected RBCs [3] = settings: for hemolysis of RBCs, in words: 5x P. falciparum 3D7-IC50, 24, 48, 72h
From the text: as §3

[4] = system: breast cancer cell line panel; design: method as in PMID 21159648; settings: cellular proliferation ref PMID 21159648; read-out: Micromolar IC50 (breast cancer cell line panel); cited from earlier work
[5] = system: alloresponsive T cell proliferation; design: method as in PMID 24131367; settings: ref PMID 24131367; read-out: Micromolar IC50 (alloresponsive T cell proliferation); cited from earlier work
[6] = molecular target: ELK1-luciferase assay, HeLa; settings: read-out: Micromolar IC50 (ELK1-luciferase assay, HeLa); ref PMID 15225706; cited from earlier work
HCT-116 = settings: read-out: Micromolar IC50 (anchorage formation, HCT-116); ref PMID 15225706; cited from earlier work
[7] = system: AP-1 transcription factor activation; design: method as in PMID 17175522; settings: ref PMID 17175522; read-out: Micromolar IC50 (AP-1 transcription factor activation); cited from earlier work
[8] = system: serum- or growth factor induced fibroblasts; design: method as in PMID 8519682; settings: cellular proliferation ref PMID 8519682; read-out: Micromolar IC50 (serum- or growth factor induced fibroblasts); cited from earlier work
AQP3 = system: AQP3; design: method as in PMID 22624030; settings: RBC assay: AQP3 glycerol conductance ref PMID 22624030; read-out: Micromolar IC50 (RBC), AQP3 glycerol conductance; cited from earlier work
P. falciparum (3D7) = experiment: Assay for inhibition of parasite proliferation via RBC-targeting (transient exposure of RBCs, wash, then infection); assay type: cell-based, Plasmodium falciparum
Method: All plates were frozen for storage before assay. For assay, duplicate plates were preincubated with donor O+ RBCs at 2% hematocrit at 37°C in 50µL for 4-5 hours. Following preincubation, one but not the other plate in each pair was washed 4X in complete RPMI to dilute inhibitor. We transferred RBCs from both washed and unwashed plates to black, clear bottom 96-well plates (Corning Cat. No. 3904) and supplemented these suspensions with MACS-purified P. falciparum (3D7) schizonts for a starting parasitemia of 0.1% - 0.25% at 1% hematocrit. Following 72h incubation in standard culture conditions, samples were processed for SYBR-Green I signal ([Mandt et al., 2019]). […] To identify host-targeting compounds, we compared DMSO-treated to inhibitor-treated samples (Students t-test, paired). We carried out the assay with 1 µM mefloquine (Sigma-Aldrich Cat. No. M2319) as a control for reversible inhibition. All assays were conducted in biological triplicate, with each experiment utilizing different donor RBCs. For select compounds, we carried out this same assay in a dose-response series (n=3 experiments). Following normalization to DMSO-controls, we assessed inhibitor activity following transient exposure of RBCs by Two-Way ANOVA tests for repeated measures (Graphpad Prism v9): high P values indicate support for the null hypothesis that dose-dependent inhibition is not modulated by dilution after exposure, consistent with a direct inhibitory effect of the compounds on RBCs persisting after transient exposure.

sickle RBCs = system: sickle RBCs; design: method as in PMID 33208899; settings: RBC assay: PS exposure in sickle RBCs ref PMID 33208899; read-out: Micromolar IC50 (RBC), PS exposure in sickle RBCs; cited from earlier work
[9] = Plasmodium falciparum, 3D7, 72 h
[10] = 24h, 5x P. falciparum 3D7-IC50, % of RBCs, mean of 2 experiments
[11] = 48h, 5x P. falciparum 3D7-IC50, % of RBCs, mean of 2 experiments
[12] = 72h, 5x P. falciparum 3D7-IC50, % of RBCs, mean of 2 experiments
[13] = Plasmodium falciparum, DD2, 72 h
[14] = uninfected RBCs (red blood cells), 1% hematocrit
[15] = Babesia divergens, 72h, asynchronous, n=3 experiments (or 2 where indicated with *)
[16] = Plasmodium falciparum, 3D7, 72h, ring-stage, n=3 experiments (or 2 where indicated with *)
[17] = Plasmodium falciparum, DD2, 72h, ring-stage, n=3 experiments (or 2 where indicated with *)
[18] = 72h, ring-stage, n=3 experiments (or 2 where indicated with *)

CN(C)CCOc1ccc(-c2nc(-c3ccncc3)c(-c3ccc4c(c3)CC/C4=N\O)[nH]2)cc1 [SB590885]
IC50 (human epithelial cells): 1.1 to 6.1 µM
IC50 ([1]; Babesia divergens, 72 h): 4 µM
IC50 (P. falciparum strain 3D7; [9]): 0.7 µM
IC50 (P. knowlesi YH1 strain; Plasmodium knowlesi, 48 h): 1.4 µM
Phosphatidylserine exposure (%) 24h (uninfected RBCs [2]; [10]): 2%
Phosphatidylserine exposure (%) 48h (uninfected RBCs [2]; [11]): 2%
Phosphatidylserine exposure (%) 72h (uninfected RBCs [2]; [12]): 4%
IC50 (P. falciparum strain Dd2; [13]): 1 µM
hemolysis at 24 h, 5 x P. falciparum 3D7-IC50 (in vitro; [14]): -4%
hemolysis at 48 h, 5 x P. falciparum 3D7-IC50 (in vitro; [14]): 4%
hemolysis at 72 h, 5 x P. falciparum 3D7-IC50 (in vitro; [14]): 11%

O=C(O)c1ccc2c(c1)nc(Nc1cccc(Cl)c1)c1ccncc12 [CX-4945]
IC50 [1, 15]: 10 µM
IC50 (P. falciparum strain 3D7; [16]): 9 µM
IC50 (P. knowlesi YH1 strain; Plasmodium knowlesi, 48 h): 9 µM
hemolysis of RBCs, in words (uninfected RBCs [3]): similarly low levels
IC50 [4]: 1.7 to 20 µM
Phosphatidylserine exposure (%) 72h (uninfected RBCs [2]): 3%
PS exposure on RBCs, in words (uninfected RBCs [2]; 5x P. falciparum 3D7-IC50, 24, 48, 72h): similarly low levels
Phosphatidylserine exposure (%) 24h (uninfected RBCs [2]; [10]): 2%
Phosphatidylserine exposure (%) 48h (uninfected RBCs [2]; [11]): 2%
IC50 (P. falciparum strain Dd2; [17]): 6 µM
hemolysis at 24 h, 5 x P. falciparum 3D7-IC50 (in vitro): -4%
hemolysis at 48 h, 5 x P. falciparum 3D7-IC50 (in vitro): -1%
hemolysis at 72 h, 5 x P. falciparum 3D7-IC50 (in vitro): 16%

CN1CCN(c2nc(C3=C(c4c[nH]c5ccccc45)C(=O)NC3=O)c3ccccc3n2)CC1 [Sotrastaurin]
IC50 [1, 15]: 10 µM
IC50 (P. falciparum strain 3D7; [16]): 5 µM
IC50 (P. knowlesi YH1 strain; Plasmodium knowlesi, 48 h): 5 µM
Phosphatidylserine exposure (%) 24h (uninfected RBCs [2]; [10]): 2%
Phosphatidylserine exposure (%) 48h (uninfected RBCs [2]; [11]): 2%
Phosphatidylserine exposure (%) 72h (uninfected RBCs [2]; [12]): 4%
IC50 (P. falciparum strain Dd2; [17]): 3 µM
hemolysis at 24 h, 5 x P. falciparum 3D7-IC50 (in vitro; [14]): -7%
hemolysis at 48 h, 5 x P. falciparum 3D7-IC50 (in vitro; [14]): 9%
hemolysis at 72 h, 5 x P. falciparum 3D7-IC50 (in vitro; [14]): 17%
IC50 [5]: 0.09 µM

N#CC(=C(N)Sc1ccccc1N)C(C#N)=C(N)Sc1ccccc1N [U0126]
IC50 ([1]; Babesia divergens, 72 h): 30 µM
IC50 [6]: 0.293 µM
IC50 (P. falciparum strain 3D7; [9]): 5.3 µM
IC50 (P. knowlesi YH1 strain; Plasmodium knowlesi, 48 h): 20 µM
Phosphatidylserine exposure (%) 48h (uninfected RBCs [2]): 4%
Phosphatidylserine exposure (%) 72h (uninfected RBCs [2]): 9%
Phosphatidylserine exposure (%) 24h (uninfected RBCs [2]; [10]): 2%
IC50 (P. falciparum strain Dd2; [13]): 3.9 µM
hemolysis at 24 h, 5 x P. falciparum 3D7-IC50 (in vitro): 3%
hemolysis at 48 h, 5 x P. falciparum 3D7-IC50 (in vitro): 9%
hemolysis at 72 h, 5 x P. falciparum 3D7-IC50 (in vitro): 20%
IC50 (HCT-116): 19.4 µM

COc1ccc2c(c1)c(C1=C(c3c[nH]c4ccccc34)C(=O)NC1=O)cn2CCCN(C)C [Go6983]
fold lower IC50s against B. divergens than the Plasmodium spp. [1]: at least 3 fold
IC50 ([1]; Babesia divergens, 72 h): 0.5 µM
IC50 [7]: 0.1 µM
IC50 (P. falciparum strain 3D7; [9]): 2 µM
IC50 (P. knowlesi YH1 strain; Plasmodium knowlesi, 48 h): 4 µM
Phosphatidylserine exposure (%) 72h (uninfected RBCs [2]): 4%
Phosphatidylserine exposure (%) 24h (uninfected RBCs [2]; [10]): 2%
Phosphatidylserine exposure (%) 48h (uninfected RBCs [2]; [11]): 2%
IC50 (P. falciparum strain Dd2; [13]): 2 µM
hemolysis at 24 h, 5 x P. falciparum 3D7-IC50 (in vitro; [14]): -7%
hemolysis at 48 h, 5 x P. falciparum 3D7-IC50 (in vitro; [14]): 5%
hemolysis at 72 h, 5 x P. falciparum 3D7-IC50 (in vitro; [14]): 12%

COc1ccc(S(=O)(=O)N(CCO)c2ccccc2CN(C)C/C=C/c2ccc(Cl)cc2)cc1 [KN-93 Phosphate]
IC50 ([1]; Babesia divergens, 72 h): 6 µM
IC50 (P. falciparum strain 3D7; [9]): 3.9 µM
IC50 (P. knowlesi YH1 strain; Plasmodium knowlesi, 48 h): 5 µM
Phosphatidylserine exposure (%) 24h (uninfected RBCs [2]; [10]): 2%
Phosphatidylserine exposure (%) 48h (uninfected RBCs [2]; [11]): 2%
Phosphatidylserine exposure (%) 72h (uninfected RBCs [2]; [12]): 4%
IC50 (P. falciparum strain Dd2; [13]): 3 µM
hemolysis at 24 h, 5 x P. falciparum 3D7-IC50 (in vitro; [14]): -4%
hemolysis at 48 h, 5 x P. falciparum 3D7-IC50 (in vitro; [14]): 7%
hemolysis at 72 h, 5 x P. falciparum 3D7-IC50 (in vitro; [14]): 16%
IC50 [8]: 6 to 12 µM

[Cl][Au]([Cl])[Cl].c1cnc2c(c1)ccc1cccnc12 [Auphen]
IC50 ([1]; 72h, asynchronous, n=3 experiments (or 2 where indicated with *)): 2.8 µM
IC50 (P. falciparum strain 3D7; [18]): 1.1 µM
IC50 (P. knowlesi YH1 strain; 48h, ring-stage, n=3 experiments (or 2 where indicated with *)): 2 µM
Hemolysis (%) 24h (uninfected RBCs [3]): -7%
Hemolysis (%) 48h (uninfected RBCs [3]): 5%
Hemolysis (%) 72h (uninfected RBCs [3]): 10. %
IC50 (AQP3): 0.8 µM
Phosphatidylserine exposure (%) 24h (uninfected RBCs [2]): 3%
Phosphatidylserine exposure (%) 48h (uninfected RBCs [2]): 10. %
Phosphatidylserine exposure (%) 72h (uninfected RBCs [2]): 24%
IC50 (P. falciparum strain Dd2; [18]): 0.61 µM

Clc1cccc(Cl)c1CSc1nnc(-c2cnccn2)s1 [Yoda1]
fold lower IC50s against B. divergens than the Plasmodium spp. [1]: at least 3 fold
IC50 ([1]; Babesia divergens, 72 h): 1.11 µM
IC50 (P. falciparum strain 3D7; [9]): 4.2 µM
IC50 (P. knowlesi YH1 strain; Plasmodium knowlesi, 48 h): 7 µM
hemolysis of RBCs, in words (uninfected RBCs [3]): rapid onset of hemolysis comparable to control compound A23187
Phosphatidylserine exposure (%) 48h (uninfected RBCs [2]; [11]): 100. %
Phosphatidylserine exposure (%) 72h (uninfected RBCs [2]; [12]): 100. %
IC50 (P. falciparum strain Dd2; [13]): 6 µM
hemolysis at 24 h, 5 x P. falciparum 3D7-IC50 (in vitro; [14]): 7%
hemolysis at 48 h, 5 x P. falciparum 3D7-IC50 (in vitro; [14]): 38%
hemolysis at 72 h, 5 x P. falciparum 3D7-IC50 (in vitro; [14]): 57%
antimalarial activity retained after transient exposure of RBCs, relative to continuous exposure to inhibitor (P. falciparum (3D7); 5x P. falciparum 3D7-IC50, RBC preincubation 4-5 hours then washed, 100% = inhibition with continuous exposure, P<0.01): ≥ 80%
inhibitory activity following transient exposure of RBCs, in words (P. falciparum (3D7); transient vs continued exposure, dose-response format where stated, n=3): statistically indistinguishable from inhibition with continued exposure
IC50 (sickle RBCs): ~2 µM
